These results are taken from publication PMC6748671, “Distribution of Small Molecular Weight Drugs into the Porcine Lens: Studies on Imaging Mass Spectrometry, Partition Coefficients, and Implications in Ocular Pharmacokinetics” (Molecular Pharmaceutics, 2019).

On the set-up of series [1]: method as in PMID 1898917. The conditions noted are these: highest Kp of previous reports; cited from earlier work.
The conditions of series [2]: pH 7.0; cited from earlier work.
For series [3] the following is noted: cited from earlier work.
A short description of series [4]: In vitro lens/buffer partition coefficient (Kp), isolated porcine lens, cassette mix, LC–MS/MS. As to conditions: for Kp at 4 h: pig, isolated porcine lens.
Details of series [5]: method as in PMID 7341754, PMID 2724118. As to conditions: in rabbit and human; cited from earlier work.
Series [6] is described as follows: Drug distribution in the porcine lens by MALDI-IMS. As to conditions: for share of total lens volume into which the drugs distributed: pig, 4 h; for distribution pattern in the lens (MALDI-IMS): porcine lens, 4 h in vitro incubation. As to the method:
After 4 h, the buffer was removed from the vials and the lenses were rinsed with HBSS–HEPES and gently blotted dry. The lenses were weighed, snap-frozen with liquid nitrogen in flat-bottomed plastic tubes, and then stored at −80 °C until sample preparation and analysis with MALDI-IMS. For the experiment, a smaller set of 16 drugs was used.
The frozen lenses were mounted onto a chuck using an optimal cutting temperature compound (Sakura Finetek, CA, USA) on the equatorial side. The lenses were sectioned to 10 μm thickness at −20 °C on a Leica CM Cryostat (S3050, Leica Microsystems GmbH, Germany), equipped with a FEATHER Microtome C35 blade (pfm medical, UK), and collected on a cryofilm (3C16UF, SECTION-LAB Co. Ltd. Yokohama, Japan) by modified Kawamoto method.[23] The film was subsequently mounted onto a microscopy glass slide using a double-sided copper tape. The slides were washed twice with 50 mM ammonium formate for 30 s and dried in a vacuum desiccator. The sample slides contained three lens sections from the drug mixture experiment and three blanks. […] Matrix α-cyano-4-hydroxycinnamic acid (7 mg/mL in 50% acetonitrile containing 1% trifluoro acetic acid) (Sigma-Aldrich, St. Louis, MO, USA) was added via spray deposition using 10 passes, flow rate of 100 μL/min, temperature of 77 °C, track spacing of 2.5 mm, and velocity of 1300 mm/min (HTX Industries, TM-Sprayer, NC, USA).
MALDI Fourier transform-ion cyclotron resonance (FT-ICR)-IMS was performed using a Bruker 7T solariX XR mass spectrometer (Bruker Daltonics, Germany) at a 75 μm spatial resolution.
The drugs were identified as their [M + H]^+ ions. Peak finding was performed using mass error less than 2.5 ppm. MALDI images for each detected compound were plotted using a 0.01 μ mass window. From the images of the individual drugs, the intensity profiles across a 30 pixel (2.25 mm) wide area in anterior–posterior axis were plotted with ImageJ software (National Institutes of Health, USA).

On the set-up of series [7]: method as in PMID 2724118. As to conditions: lowest Kp of previous reports; cited from earlier work.
Another series in a line: in vitro. The conditions noted are these: pig.
The nature of series [8]: Pharmacokinetic simulation of topical timolol instillation with lens compartment. Also on record: species or system rabbit. As to the method: A pharmacokinetic simulation model for rabbit was built for topical timolol instillation based on the model of Ranta et al.[25] The lens compartment, separate from the reservoir compartment, was added to the model (Figure 1). The unknown parameter values for timolol distribution clearance between aqueous humor and lens (QLENS), Kp, and clearance from tear fluid to cornea (CLTF,CO) were obtained by adjusting the values manually until the simulated concentration in the lens matched with in vivo data on timolol distribution to the rabbit lens.[26] Finally, the distribution clearance between the aqueous humor and the reservoir (QRESERVOIR) and the volume of the reservoir (VRESERVOIR) were adjusted to match the corresponding parameters in the original model. For details of the model building and parameters, see the Supporting Information. STELLA software (v8.1.1, isee systems) was used to construct the simulation model.
Kinetic simulations were carried out to estimate how drug partitioning into the lens might affect ocular pharmacokinetics after single and multiple doses of eye drops. […] The run time was 7 days and the delta time was 0.5 min.
Pharmacokinetic simulations
The pharmacokinetic simulation model was built on a model of topical timolol instillation4, where a lens compartment, separate from the reservoir compartment, was added . Experimental concentration -time data, extracted with Webplotdigitizer ( v4.2, https://automeris.io/WebPlotDig-itizer), in the aqueous humor and lens after topical dosing of timolol 5 was used as a basis for the […]
The timolol distribution clearance between aqueous humor and lens (QLENS), lens-buffer partition coefficient (Kp) and clearance from tear fluid to cornea (CL TF,CO) were obtained by com-paring the simulated curves with experimental in vivo data on timolol distribution in the rabbit […]
and QLENS values, the distribution clearance between aqueous humor and reservoir (QRESERVOIR) and volume of the reservoir (VRESERVOIR) were changed to match the corresponding parameters in the original model4 (Supplementary table 1).
Supplementary figure 6. Adjustment of the lens-aqueous humor partition coefficient (Kp), the clearance between aqueous humor and lens (QLENS) and clearance from tear fluid to cornea (CLTF,CO) with experimental data5.
(1 picture or pasted object on this page, not shown here)
Supplementary table 1. Parameters for the pharmacokinetic simulation model.

For series [9] the following is noted: rabbit model parameter, cited from earlier work.
[10] abbreviates: rabbit, adjusted from original model.
Setting [11] is: rabbit, adjusted with experimental in vivo data.

Where two headings read alike, the source gives them in different places.

Consider `CCCCCOc1ccc(C2SC(=O)NC2=O)cc1OCC` (centres unmarked) [CT-112], for which the “lens Kp in previous reports” value in series [1] is recorded as 8.
`CCN(CC)c1ccc2c(-c3ccccc3C(=O)O)c3ccc(=[N+](CC)CC)cc-3oc2c1` [Rhodamine-B]: the “experimental log D7.0” value in [2] is given as 2.
For `C[C@@H]1C[C@H]2[C@@H]3CCC4=CC(=O)C=C[C@]4(C)[C@@]3(F)[C@@H](O)C[C@]2(C)[C@@]1(O)C(=O)CO` [dexamethasone], the “concentration in the lens in vivo compared with aqueous humor, iris and ciliary body” value in series [3] is “much lower”.
As to `O=C(O)Cc1ccccc1Nc1c(Cl)cccc1Cl` [diclofenac], in series [4] (porcine lens in vitro, incubation time 4 h (Figure S7)), the “concentration equilibrium between incubate and lens at 4 h” value is reported as “would have required longer incubation time to reach true equilibria”.
On to `O=C1OC2(c3ccc(O)cc3Oc3cc(O)ccc32)c2ccccc21` [fluorescein sodium], for which the “experimental log D7.0” value in series [2] was 0.1.
In series [4], `CC(=O)/N=c1/sc(S(N)(=O)=O)nn1C` [methazolamide] yielded a Kp at 4 h of 0.047.
In turn, `CC[C@@H]1C(=O)OC[C@@H]1Cc1cncn1C` [pilocarpine] showed a Kp at 4 h in [4] of 0.145. Besides, in series [5], the “lens Kp, previous literature” value is on record as 0.3–1.0. The “concentration in the lens in vivo compared with aqueous humor, iris and ciliary body” value in series [3] is on record as “much lower”. Further, in [6], the “share of total lens volume into which the drugs distributed” value (“share” for short) came out at 27.1%; the “distribution pattern in the lens (MALDI-IMS)” value was “only in the capsule and cortex of the lens but not in the nucleus”. The “lens Kp in previous reports” value in series [7] is listed as “about 0.3”.
In the case of `CC(C)NCC(O)COc1cccc2[nH]ccc12` (centres unmarked) [pindolol], the “share” value in [6] stood at 27.1%.
In “in vitro”, `CC(C)NCC(O)COc1cccc2ccccc12` (centres unmarked) [propranolol] had a Kp at 4 h of 0.762. Besides, in [6], the “share” value is reported as 27.1%.
Take `CC(C)(C)NC[C@H](O)COc1nsnc1N1CCOCC1` [timolol]: in [8] (setting [10]), the “QRESERVOIR (distribution clearance between aqueous humor and reservoir)” value was 11.888 µL/min; the “VRESERVOIR (reservoir volume)” value is 262 µL. In series [8] (setting [11]), the “CLTF,CO (clearance from tear fluid to cornea)” value is 1.3 µL/min; the “QLENS (distribution clearance between aqueous humor and lens)” value is 0.6 µL/min. Also, the Kp in series [8] (topical, rabbit lens, adjusted manually to in vivo data on timolol distribution (Lee et al.), read-out: Kp (lens-buffer partition coefficient), model parameter) was 0.35. The “concentration in the lens in vivo compared with aqueous humor, iris and ciliary body” value in [3] is reported as “much lower”. The “kel (elimination rate constant)” value in series [9] (aqueous humor, ref SI 4, 8) is 0.057 min⁻¹. In series [9] (ref SI 4, 7), the “CLTF,CJ (clearance from tear fluid by conjunctival absorption)” value is 10.4 µL/min.
For the compound `Clc1ccc2nsnc2c1NC1=NCCN1` [tizanidine], in [6], the “share” value stood at 27.1%; the “distribution pattern in the lens (MALDI-IMS)” value is “only in the capsule and cortex of the lens but not in the nucleus”.
For the compound Rhodamine-123, in series [2], the “experimental log D7.0” value was 0.4.
